Laboratory results: US8741871B2, “Trehalose compound, method for producing same, and pharmaceutical product containing the compound” (priority 2008, dated 2014)

Experiments:
[1] = tested on: mouse intraperitoneal macrophages; test: Measurement of active oxygen released from mouse intraperitoneal macrophages (H2DCFDA fluorescence); assay type: cell-based; conditions: 50 μM test compound, one hour; FIG. 1
Procedure: 3 ml of 5% thioglycolate medium (Difco, BD, code. 225640, Lot. 6192372) was administered into the abdominal cavity of a mouse (ICR mouse (SPF), 5-week-old, male). Four days after the administration, the mouse was sacrificed with the use of diethyl ether. […] This operation was repeatedly carried out two times. […] Thereafter, the number of macrophages was counted with One Cell Counter (Wakenyaku Co., Ltd.). The obtained macrophages were diluted with an RPMI-1640 medium to have any given concentration. The thus obtained mouse intraperitoneal macrophages were used in the subsequent test.
0.7 g of BSA was weighed into a large test tube. […] Subsequently, protein was quantified using Nano Drop ND-1000, and it was then diluted with sterilized PBS (−) so as to result in a final concentration of 2%. […]
After the macrophages had been washed with HBSG-BSA, they were then suspended in approximately 5 mL of HBSG-BSA, and 100 of the obtained suspension was then dispensed into each well of a 96-well Collagen Well (TC-PLATE 96 WELL, STERILE WITH LID, IND PACKED). […] One hour later, the amount of active oxygen was measured using Genios fluorescence intensity measurement apparatus.
The above-mentioned H2DCFDA is a fluorescent probe, and its fluorescence intensity is increased in the presence of hydrogen peroxide (H2O2).

[2] = tested on: mouse intraperitoneal macrophages; test: Measurement of phagocytic ability of mouse intraperitoneal macrophages (fluorescent beads); assay type: cell-based; conditions: 50 μM test compound, 2 hours, FIG. 2
Procedure: Mouse intraperitoneal macrophages, a 40 mM test compound solution, and an RPMI1640 medium were prepared in the same manner as described above.
In the following experiment, Fluoresbrite (trademark) Carboxylate Microspheres (2.58% Solids-Latex) YG (Polysciences, Inc.) were used as fluorescent beads.
Macrophages were added to a TC-Plate (TC-PLATE 24 WELL, STERILE WITH LID, IND PACKED, greiner bio-one), so that they became 80% confluent. The macrophages were incubated at 37° C. for 2 hours. Thereafter, the supernatant was discarded, and the cells were then washed with 500 μl of RPMI 1640 medium two times. Each composition shown in Table 3 below was added to the TC-Plate, and it was then incubated at 37° C. for 2 hours. Thereafter, the supernatant was discarded, and the cells were then washed with 300 μl of sterilized PBS (−). In order to remove fluorescent beads that had not been incorporated into the cells, the aforementioned washing operation was repeatedly carried out two times. Macrophages were peeled off with 200 μl of sterilized PBS (−), and were then transferred into an Eppendorf tube. The macrophages were centrifuged at 1,500 rpm for 8 minutes. […]
Using FUJI FILM FLA-2000, the amount of fluorescent beads incorporated into the cells was measured [fluorescence intensity (Fluor 473 nm, Y520 Filter)]. For analysis, Image Reader V1.4J was used.

THP-1 cells = test: Measurement of IL-8 released from THP-1 cells (ELISA); assay type: cell-based, human; conditions: 50 μM test compound, two hours; FIG. 5
Procedure: An RPMI medium solution was prepared in the same manner as described above. Using this medium solution, an RPMI medium solution of the test compound was prepared as follows.
1.0 mg of the test compound was dissolved in 25 μl of DMSO by an ultrasonic treatment for approximately 1 minute. The thus obtained 40 mM test compound stock solution was added to 100 μl of RPMI medium to a final concentration of 50 μM. […] In the case of preparing the vehicle used as a control, instead of the 40 mM test compound stock solution, only the solvent was added in the same amount as described above to the RPMI medium, and it was then treated with ultrasonic wave for 5 seconds.
THP-1 cells (purchased from Cell Bank, RIKEN BioResource Center) were added to an RPMI medium to a cell density of 1.0×10^6 cells/100 μl and 100 μl each of the obtained solution was dispensed into a sterile Eppendorf tube. 100 μl of the RPMI medium solution of the test compound as prepared above was treated with ultrasonic wave for 5 seconds, and the total amount of the solution was then added to the Eppendorf tube, into which the cells had been dispensed. Two hours later, the reacted Eppendorf tube was centrifuged at 5000 rpm for 5 minutes, and the amount of IL-8 released into the supernatant was then measured using ELISA kit (human IL-8 ELISA kit (R & D Systems (trademark)).

[3] = tested on: Salmonella typhmurium TA98; test: Mutagenicity test (Ames test); conditions: TA98, in the presence or absence of S9 mix; FIG. 11
[4] = tested on: IL-6, TNF-α, IFN-γ in mouse plasma; test: Measurement of IL-6, TNF-α and IFN-γ released into peripheral blood of test compound administered mouse; conditions: 100 μg/mouse intravenous, two hours later; for IL-6-releasing activity (mouse plasma IL-6 concentration) compared with TDCM: FIG. 6; for IFN-γ-releasing activity (mouse plasma IFN-γ concentration) compared with TDCM: FIG. 7

Row | SMILES | action to promote the generation of active oxygen from mouse intraperitoneal macrophages, compared with TDCM [1] | action to activate the phagocytosis of mouse intraperitoneal macrophages, compared with TDCM [2] | IL-8 released from THP-1 cells, activity compared with TDCM (THP-1 cells) | mutagenicity (Ames test, number of His colonies) [3] | IL-6-releasing activity (mouse plasma IL-6 concentration) compared with TDCM [4] | IFN-γ-releasing activity (mouse plasma IFN-γ concentration) compared with TDCM [4] | plasma TNF-α concentration in mice, activity compared with TDCM ([4]; FIG. 8)
1 | CCCCCCCCCC(CCCCCCCCC)CC(=O)OCC1O[C@H](O[C@H]2OC(COC(=O)CC(CCCCCCCCC)CCCCCCCCC)[C@@H](O)C(O)C2O)C(O)C(O)[C@@H]1O (stereo partly drawn) [Example 9, 6,6′-bis-O-(3-nonyldodecanoyl)-α,α′-trehalose] | two times higher than the activity of TDCM | approximately two times higher than the activity of TDCM | approximately 0.8 times | did not exhibit mutagenicity | approximately 1.5 times | approximately 1.5 times | –
2 | CCCCCCCCCCC(CCCCCCCCCC)C(=O)OCC1O[C@H](O[C@H]2OC(COC(=O)C(CCCCCCCCCC)CCCCCCCCCC)[C@@H](O)C(O)C2O)C(O)C(O)[C@@H]1O (stereo partly drawn) [Example 1, 6,6′-bis-O-(2-decyldodecanoyl)-α,α′-trehalose] | two times higher than the activity of TDCM | approximately two times higher than the activity of TDCM | approximately 0.6 times | significant results could be obtained | approximately 1.2 times | approximately 1.5 times | the same level as that of TDCM
